Test results as given in PubChem BioAssay AID330 (DTP/NCI, 2004).
Where “and” joins values, the source holds several entries; their conditions need not be identical. Identical values can stand only once. Inconclusive results and toxic doses are left out. Rule for the calls: active = survival T/C of 150% or more; inactive = T/C below 125% in these data.

Test system: P388 leukemia ip, CD2F1 mice, survival T/C
Experiment: NCI In Vivo Anticancer Drug Screen. Data for tumor model P388 Leukemia (intraperitoneal) in CD2F1 (CDF1) mice
Settings: endpoint: median survival time, higher = longer survival
Method in brief: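 Mice carrying the transplanted tumor received test compound or vehicle. Survival was recorded in each group, and the value is the treated-group measurement divided by that of the vehicle-treated control group.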

[1] = dose: 50.0 mg/kg/injection, schedule: Q01DX009 (ip), vehicle: saline
[2] = dose: 100.0 mg/kg/injection, schedule: Q01DX009 (ip), vehicle: saline
[3] = dose: 200.0 mg/kg/injection, schedule: Q01DX009 (ip), vehicle: saline
[4] = dose: 25.0 mg/kg/injection, schedule: Q01DX009 (ip), vehicle: saline with Tween-80
[5] = dose: 50.0 mg/kg/injection, schedule: Q01DX009 (ip), vehicle: saline with Tween-80
[6] = dose: 100.0 mg/kg/injection, schedule: Q01DX009 (ip), vehicle: saline with Tween-80
[7] = dose: 200.0 mg/kg/injection, schedule: Q01DX009 (ip), vehicle: saline with Tween-80
[8] = dose: 60.0 mg/kg/injection, schedule: Q01DX005 (ip), vehicle: saline
[9] = dose: 120.0 mg/kg/injection, schedule: Q01DX005 (ip), vehicle: saline
[10] = dose: 240.0 mg/kg/injection, schedule: Q01DX005 (ip), vehicle: saline
[11] = dose: 50.0 mg/kg/injection, schedule: Q01DX005 (ip), vehicle: Klucel (hydroxypropylcellulose) (HPC)
[12] = dose: 100.0 mg/kg/injection, schedule: Q01DX005 (ip), vehicle: Klucel (hydroxypropylcellulose) (HPC)
[13] = dose: 200.0 mg/kg/injection, schedule: Q01DX005 (ip), vehicle: Klucel (hydroxypropylcellulose) (HPC)

Measured: T/C

c1cc2onc3c4cccc5onc(c(c1)c23)c54
inactive: dose: 8.75 mg/kg/injection, schedule: Q01DX005 (ip), vehicle: Klucel (hydroxypropylcellulose) (HPC) 99 % of control | dose: 17.5 mg/kg/injection, schedule: Q01DX005 (ip), vehicle: Klucel (hydroxypropylcellulose) (HPC) 93 % of control | dose: 35.0 mg/kg/injection, schedule: Q01DX005 (ip), vehicle: Klucel (hydroxypropylcellulose) (HPC) 99 % of control

C1=Cc2ccccc2C(=C2CCOCC2)c2ccccc21
inactive: [1] 113 % of control | [2] 100 % of control | [3] 94 % of control

CC(=O)Nc1ccc(/C=N/NC(=O)CNC(=O)Nc2cccc(Cl)c2Cl)cc1
inactive: [4] 99 % of control | [5] 97 % of control | [6] 89 % of control | [7] 93 % of control

FC(F)(F)c1cc(Cl)nc(Cl)n1
inactive: dose: 6.0 mg/kg/injection, schedule: Q01DX005 (ip), vehicle: saline with Tween-80 106 % of control | dose: 12.0 mg/kg/injection, schedule: Q01DX005 (ip), vehicle: saline with Tween-80 97 % of control | dose: 25.0 mg/kg/injection, schedule: Q01DX005 (ip), vehicle: saline with Tween-80 92 % of control

NC(Cc1ccccc1)C(=O)Nc1cccnc1 (centres undefined)
inactive: dose: 15.0 mg/kg/injection, schedule: Q01DX005 (ip), vehicle: saline 98 % of control | dose: 30.0 mg/kg/injection, schedule: Q01DX005 (ip), vehicle: saline 102 % of control | [8] 102 % of control and 105 % of control

Cc1nn(C(=O)c2ccncc2)c(C)c1N=Nc1cccc(Cl)c1
inactive: dose: 50.0 mg/kg/injection, schedule: Q01DX009 (ip), vehicle: Klucel (hydroxypropylcellulose) (HPC) 99 % of control | dose: 100.0 mg/kg/injection, schedule: Q01DX009 (ip), vehicle: Klucel (hydroxypropylcellulose) (HPC) 100 % of control | dose: 200.0 mg/kg/injection, schedule: Q01DX009 (ip), vehicle: Klucel (hydroxypropylcellulose) (HPC) 98 % of control

COc1ccc2ncc(COC(C)=O)c(C)c2c1
inactive: dose: 50.0 mg/kg/injection, schedule: Q01DX005 (ip), vehicle: saline with Tween-80 99 % of control | dose: 100.0 mg/kg/injection, schedule: Q01DX005 (ip), vehicle: saline with Tween-80 99 % of control | dose: 200.0 mg/kg/injection, schedule: Q01DX005 (ip), vehicle: saline with Tween-80 93 % of control

C=CC(C)(C)C1Oc2cc(OC)ccc2C(=O)C1c1ccc(OC)c(OC)c1O (centres undefined)
inactive: dose: 100.0 mg/kg/injection, schedule: Q04DX003 (ip), vehicle: Klucel (hydroxypropylcellulose) (HPC) 99 % of control | dose: 200.0 mg/kg/injection, schedule: Q04DX003 (ip), vehicle: Klucel (hydroxypropylcellulose) (HPC) 98 % of control | dose: 400.0 mg/kg/injection, schedule: Q04DX003 (ip), vehicle: Klucel (hydroxypropylcellulose) (HPC) 96 % of control

CCN=C1C=C/C(=C(/c2ccc(NCC)c(C)c2)c2cc(O)c(S(=O)(=O)O)cc2S(=O)(=O)O)C=C1C
inactive: [8] 107 % of control | [9] 106 % of control | [10] 102 % of control

O=C(NCCCCNCCCNC(=O)c1ccc([N+](=O)[O-])cc1)c1ccc([N+](=O)[O-])cc1
inactive: dose: 60.0 mg/kg/injection, schedule: Q01DX005 (ip), vehicle: saline with Tween-80 97 % of control | dose: 120.0 mg/kg/injection, schedule: Q01DX005 (ip), vehicle: saline with Tween-80 92 % of control | dose: 240.0 mg/kg/injection, schedule: Q01DX005 (ip), vehicle: saline with Tween-80 98 % of control

O=[N+]([O-])c1cc2ccc3ccoc3c2o1
inactive: [11] 90 % of control | [12] 97 % of control | [13] 96 % of control

CC(C)N1CCN(c2ccncc2S(=O)(=O)N2CCN(C)CC2)CC1
inactive: [1] 106 % of control | [2] 90 % of control | [3] 99 % of control

CCN(CC)CC(C)=O
inactive: dose: 25.0 mg/kg/injection, schedule: Q01DX009 (ip), vehicle: saline 101 % of control | [1] 102 % of control | [2] 103 % of control | [3] 104 % of control

COc1cc(CCNC(=O)CCN2C(=O)CCC2=O)cc(OC)c1OC
inactive: [1] 104 % of control | [2] 100 % of control | [3] 103 % of control

Cc1oc2c(C)c3oc(=O)cc(C)c3cc2c1CO
inactive: dose: 100.0 mg/kg/injection, schedule: Q05DX002 (ip), vehicle: Klucel (hydroxypropylcellulose) (HPC) 92 % of control | dose: 200.0 mg/kg/injection, schedule: Q05DX002 (ip), vehicle: Klucel (hydroxypropylcellulose) (HPC) 97 % of control | dose: 400.0 mg/kg/injection, schedule: Q05DX002 (ip), vehicle: Klucel (hydroxypropylcellulose) (HPC) 95 % of control

OCC1OC2OC3C(CO)OC(OC4C(CO)OC(OC5C(CO)OC(OC6C(CO)OC(OC7C(CO)OC(OC8C(CO)OC(OC1C(O)C2O)C(O)C8O)C(O)C7O)C(O)C6O)C(O)C5O)C(O)C4O)C(O)C3O (centres undefined)
inactive: [1] 100 % of control | [2] 94 % of control

N#CN=[N+]([O-])c1ccccc1[N+](=O)[O-]
inactive: dose: 6.25 mg/kg/injection, schedule: Q04DX003 (ip), vehicle: Klucel (hydroxypropylcellulose) (HPC) 110 % of control | dose: 12.5 mg/kg/injection, schedule: Q04DX003 (ip), vehicle: Klucel (hydroxypropylcellulose) (HPC) 106 % of control

N=C(N)c1nc2ccccc2s1
inactive: dose: 12.5 mg/kg/injection, schedule: Q01DX009 (ip), vehicle: other 102 % of control | dose: 25.0 mg/kg/injection, schedule: Q01DX009 (ip), vehicle: other 104 % of control | dose: 50.0 mg/kg/injection, schedule: Q01DX009 (ip), vehicle: other 93 % of control

O=c1[nH]cc(N=Cc2ccccc2F)c(=O)[nH]1
inactive: dose: 50.0 mg/kg/injection, schedule: Q01DX009 (ip), vehicle: suspension in saline 92 % of control | dose: 100.0 mg/kg/injection, schedule: Q01DX009 (ip), vehicle: suspension in saline 100 % of control | dose: 200.0 mg/kg/injection, schedule: Q01DX009 (ip), vehicle: suspension in saline 96 % of control

CC(C)=CCC(/C=N/N=C(N)N)C(C)C (centres undefined)
inactive: dose: 6.25 mg/kg/injection, schedule: Q01DX005 (ip), vehicle: suspension in saline 96 % of control | dose: 12.5 mg/kg/injection, schedule: Q01DX005 (ip), vehicle: suspension in saline 97 % of control | dose: 25.0 mg/kg/injection, schedule: Q01DX005 (ip), vehicle: suspension in saline 96 % of control

COc1ccc(/C=N/N2C(=O)c3ccccc3C2=O)cc1
inactive: [11] 105 % of control | [12] 93 % of control | [13] 100 % of control

C#CC1(NC(=O)c2ccccc2C(=O)Nc2cccc(C(F)(F)F)c2)CCCCC1
inactive: [5] 97 % of control | [6] 89 % of control | [7] 89 % of control

CCCCCCC(=O)/C=C/c1cccc(OCc2ccc([N+](=O)[O-])cc2)c1
inactive: dose: 12.5 mg/kg/injection, schedule: Q01DX009 (ip), vehicle: saline with Tween-80 86 % of control | [4] 89 % of control | [5] 87 % of control and 91 % of control | [7] 88 % of control

CCCC(O)(CCC)/C(C)=N/NC(N)=O
inactive: [5] 95 % of control | [6] 97 % of control | [7] 92 % of control

CN1C2=CCCCC2(C)c2ccccc21 (centres undefined)
inactive: [8] 105 % of control | [9] 115 % of control | [10] 118 % of control

O=C1OC2(CCCC2)OC(=O)C1=Cc1ccc([N+](=O)[O-])s1
inactive: [5] 115 % of control | [6] 114 % of control

COC(=O)/C(=C\c1ccncc1)c1cccc2ccccc12
inactive: [4] 101 % of control | [5] 98 % of control | [6] 104 % of control | [7] 99 % of control

Cc1ccc[c]([Hg][Cl])c1N=Nc1ccccc1
inactive: dose: 9.5 mg/kg/injection, schedule: Q01DX009 (ip), vehicle: saline with Tween-80 118 % of control | dose: 19.0 mg/kg/injection, schedule: Q01DX009 (ip), vehicle: saline with Tween-80 110 % of control
